Paper PMC5466588 (Redox Biology, 2017)

Assays:
Experiment in all cases: Di-E-GSSG fluorescent reductase assay
Format in all cases: biochemical
[1] = target: T1, ERp57 (Homo sapiens, UniProt P30101)
T1 sequence (P30101 25-505): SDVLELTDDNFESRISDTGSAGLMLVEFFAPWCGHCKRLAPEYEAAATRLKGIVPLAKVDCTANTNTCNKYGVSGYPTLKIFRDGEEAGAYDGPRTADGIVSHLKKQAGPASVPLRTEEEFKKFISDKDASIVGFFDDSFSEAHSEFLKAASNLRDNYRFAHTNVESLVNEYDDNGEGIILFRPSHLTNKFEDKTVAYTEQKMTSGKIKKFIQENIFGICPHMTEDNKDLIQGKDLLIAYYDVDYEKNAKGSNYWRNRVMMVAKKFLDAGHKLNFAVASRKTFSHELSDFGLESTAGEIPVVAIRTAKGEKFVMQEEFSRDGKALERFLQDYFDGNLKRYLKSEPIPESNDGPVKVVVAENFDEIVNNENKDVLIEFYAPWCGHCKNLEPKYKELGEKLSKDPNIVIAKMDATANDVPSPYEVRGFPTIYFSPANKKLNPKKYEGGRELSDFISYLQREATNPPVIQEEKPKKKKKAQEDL

[2] = target: T2, ERp5 (Homo sapiens, UniProt Q15084)
T2 sequence (Q15084 20-440): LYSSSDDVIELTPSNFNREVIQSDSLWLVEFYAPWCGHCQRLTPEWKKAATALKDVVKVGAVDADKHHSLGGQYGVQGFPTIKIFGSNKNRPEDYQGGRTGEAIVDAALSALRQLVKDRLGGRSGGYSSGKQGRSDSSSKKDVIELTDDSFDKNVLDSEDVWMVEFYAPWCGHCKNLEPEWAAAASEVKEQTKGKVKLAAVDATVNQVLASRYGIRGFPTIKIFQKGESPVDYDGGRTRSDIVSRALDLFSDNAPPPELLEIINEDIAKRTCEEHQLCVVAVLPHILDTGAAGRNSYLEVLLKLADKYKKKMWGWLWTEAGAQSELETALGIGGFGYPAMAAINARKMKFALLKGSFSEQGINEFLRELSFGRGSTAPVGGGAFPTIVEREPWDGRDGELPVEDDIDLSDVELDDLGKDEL

[3] = target: T3, ERp72 (Homo sapiens, UniProt P13667)
T3 sequence (P13667 21-645): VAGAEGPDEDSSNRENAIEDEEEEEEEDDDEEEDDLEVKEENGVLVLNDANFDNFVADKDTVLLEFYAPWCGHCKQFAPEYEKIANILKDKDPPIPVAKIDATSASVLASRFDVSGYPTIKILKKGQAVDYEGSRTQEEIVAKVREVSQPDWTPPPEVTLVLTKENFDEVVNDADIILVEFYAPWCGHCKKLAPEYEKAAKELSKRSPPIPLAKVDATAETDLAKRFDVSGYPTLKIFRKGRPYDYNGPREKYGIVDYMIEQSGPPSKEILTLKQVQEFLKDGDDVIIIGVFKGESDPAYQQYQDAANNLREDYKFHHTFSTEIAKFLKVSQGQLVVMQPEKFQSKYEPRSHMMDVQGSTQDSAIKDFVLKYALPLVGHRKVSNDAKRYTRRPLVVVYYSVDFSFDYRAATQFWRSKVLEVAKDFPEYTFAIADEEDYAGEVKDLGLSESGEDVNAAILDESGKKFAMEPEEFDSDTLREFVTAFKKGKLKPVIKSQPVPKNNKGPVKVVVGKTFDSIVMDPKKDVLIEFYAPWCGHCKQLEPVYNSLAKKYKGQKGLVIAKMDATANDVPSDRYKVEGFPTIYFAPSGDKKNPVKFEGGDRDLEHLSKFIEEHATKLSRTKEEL

[4] = target: protein disulfide isomerase (PDI) (Homo sapiens, UniProt P07237)
Chain of protein disulfide isomerase (PDI) (P07237 18-508): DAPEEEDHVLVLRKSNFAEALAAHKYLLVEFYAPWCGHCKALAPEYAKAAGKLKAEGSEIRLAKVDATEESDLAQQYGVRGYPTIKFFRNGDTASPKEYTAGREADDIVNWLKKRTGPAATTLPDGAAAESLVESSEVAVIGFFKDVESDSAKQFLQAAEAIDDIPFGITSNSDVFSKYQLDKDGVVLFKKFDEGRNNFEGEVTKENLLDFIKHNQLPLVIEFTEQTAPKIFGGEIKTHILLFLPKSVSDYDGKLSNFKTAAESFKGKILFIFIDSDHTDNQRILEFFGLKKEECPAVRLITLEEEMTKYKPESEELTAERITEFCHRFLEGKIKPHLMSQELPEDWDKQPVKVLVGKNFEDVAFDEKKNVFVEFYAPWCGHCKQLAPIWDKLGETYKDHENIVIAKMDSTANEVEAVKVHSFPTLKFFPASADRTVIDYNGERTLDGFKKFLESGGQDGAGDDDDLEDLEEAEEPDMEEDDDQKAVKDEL

Compound: COc1cc(/C=C/[N+](=O)[O-])ccc1OC(=O)c1cccc(Cl)c1Cl [HPW-RX40, 2-Methoxy-4-[(E)-2-nitrovinyl]phenyl 2,3-dichlorobenzoate]
- IC50 [1]: 4.3 µM
- IC50 [2]: 2.6 µM
- IC50 [3]: 18.8 µM
- IC50 [4]: 1.45 µM
